Data from patent publication US12187723B2 (BRISTOL-MYERS SQUIBB COMPANY, priority 2019, dated 2025).

Assays:
[1] = molecular target: T1, human TLR9 (Homo sapiens, UniProt Q9NR96); assay: TLR9 inhibition reporter assay (HEK-Blue SEAP); type: cell-based; details: HEK-Blue cells overexpressing human TLR9, ODN2006 5 nM, 22 hour incubation
T1 construct: host or cells: HEK-Blue cells
T1 sequence (Q9NR96 26-1032): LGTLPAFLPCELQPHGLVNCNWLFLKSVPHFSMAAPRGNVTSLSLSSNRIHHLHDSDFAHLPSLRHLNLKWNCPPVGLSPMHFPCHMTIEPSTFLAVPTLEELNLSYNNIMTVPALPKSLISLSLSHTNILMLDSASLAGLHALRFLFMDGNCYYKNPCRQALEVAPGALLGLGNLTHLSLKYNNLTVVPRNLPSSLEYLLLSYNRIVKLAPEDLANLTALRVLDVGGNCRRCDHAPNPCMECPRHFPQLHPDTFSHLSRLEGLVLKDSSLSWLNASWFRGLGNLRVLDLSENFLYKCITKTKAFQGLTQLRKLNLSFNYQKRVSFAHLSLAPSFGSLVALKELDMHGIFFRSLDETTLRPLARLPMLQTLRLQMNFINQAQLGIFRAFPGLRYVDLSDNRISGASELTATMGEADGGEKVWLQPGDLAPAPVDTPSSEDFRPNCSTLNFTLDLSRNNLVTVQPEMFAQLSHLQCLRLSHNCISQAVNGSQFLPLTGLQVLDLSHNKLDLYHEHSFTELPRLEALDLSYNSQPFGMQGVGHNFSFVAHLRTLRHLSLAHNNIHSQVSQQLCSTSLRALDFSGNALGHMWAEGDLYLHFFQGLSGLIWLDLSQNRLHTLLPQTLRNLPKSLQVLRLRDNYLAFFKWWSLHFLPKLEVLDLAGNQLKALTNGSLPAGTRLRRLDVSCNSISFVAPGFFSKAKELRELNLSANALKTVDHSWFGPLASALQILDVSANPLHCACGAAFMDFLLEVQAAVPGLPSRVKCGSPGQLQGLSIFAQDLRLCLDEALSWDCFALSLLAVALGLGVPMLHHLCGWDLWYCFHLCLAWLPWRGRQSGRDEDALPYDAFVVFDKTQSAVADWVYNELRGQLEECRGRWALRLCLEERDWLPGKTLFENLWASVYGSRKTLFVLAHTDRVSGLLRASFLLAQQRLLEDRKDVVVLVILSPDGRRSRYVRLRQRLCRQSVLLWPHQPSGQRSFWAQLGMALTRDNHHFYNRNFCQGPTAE
Outline: (§1)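 Dose–response from 0.05 nM to 50 μM was run in HEK-Blue human TLR7, TLR8 and TLR9 reporter cells. After 30 min at room temperature with compound, ligand was added (TLR7 gardiquimod 7.5 μM; TLR8 R848 15.9 μM; TLR9 ODN2006 5 nM) and SEAP measured next day, at 22 h.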

[2] = molecular target: T2, human TLR8 (Homo sapiens, UniProt Q9NR97); assay: TLR8 inhibition reporter assay (HEK-Blue SEAP); type: cell-based; details: HEK-Blue cells overexpressing human TLR8, R848 15.9 μM, 22 hour incubation
T2 construct: host or cells: HEK-Blue cells
T2 sequence (Q9NR97 27-1041): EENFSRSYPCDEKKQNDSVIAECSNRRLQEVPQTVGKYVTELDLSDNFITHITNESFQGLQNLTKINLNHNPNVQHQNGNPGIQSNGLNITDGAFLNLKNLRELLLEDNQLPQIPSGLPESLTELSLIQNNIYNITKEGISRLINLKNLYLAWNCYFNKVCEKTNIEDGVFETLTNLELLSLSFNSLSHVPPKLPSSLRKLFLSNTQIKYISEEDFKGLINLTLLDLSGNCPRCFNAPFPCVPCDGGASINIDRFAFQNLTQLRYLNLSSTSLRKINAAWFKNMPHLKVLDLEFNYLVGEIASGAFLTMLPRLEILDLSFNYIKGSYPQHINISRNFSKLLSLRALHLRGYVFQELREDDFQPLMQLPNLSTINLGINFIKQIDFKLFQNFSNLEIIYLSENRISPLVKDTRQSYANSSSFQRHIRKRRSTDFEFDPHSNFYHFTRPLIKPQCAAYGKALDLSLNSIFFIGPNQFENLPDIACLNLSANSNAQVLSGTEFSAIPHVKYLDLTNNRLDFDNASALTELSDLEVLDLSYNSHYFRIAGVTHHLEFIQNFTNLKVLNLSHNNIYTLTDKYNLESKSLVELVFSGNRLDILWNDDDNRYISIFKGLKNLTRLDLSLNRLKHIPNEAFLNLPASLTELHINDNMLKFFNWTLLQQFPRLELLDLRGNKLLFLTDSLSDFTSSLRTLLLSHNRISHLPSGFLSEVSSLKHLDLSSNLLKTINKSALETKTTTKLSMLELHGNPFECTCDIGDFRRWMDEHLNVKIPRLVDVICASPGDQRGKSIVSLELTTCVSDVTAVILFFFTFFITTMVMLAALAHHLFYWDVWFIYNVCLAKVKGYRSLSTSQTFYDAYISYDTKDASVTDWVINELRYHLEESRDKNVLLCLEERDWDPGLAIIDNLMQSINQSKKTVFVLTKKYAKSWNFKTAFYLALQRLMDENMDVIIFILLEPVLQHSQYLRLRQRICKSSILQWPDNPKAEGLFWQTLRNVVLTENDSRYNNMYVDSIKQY
Outline: as §1

Compound | IC50 [1] [nM] | IC50 [2] [nM]
COc1c(C)c(-c2cc3[nH]c(=O)n(C4CCC(N5CC6(COC6)C5)CC4)c3cc2C(C)C)cn2ncnc12 (single isomer, unassigned) [Example 270, 1-(4-(2-oxa-6-azaspiro[3.3]heptan-6-yl)cyclohexyl)-6-isopropyl-5-(8-methoxy-7-methyl-[1,2,4]triazolo[1,5-a]pyridin-6-yl)-1,3-dihydro-2H-benzo[d]imidazol-2-one] | 11600 | 2.83
Cc1c(-c2cc3[nH]c(=O)n(C4CCC(N5CCC(F)(F)CC5)CC4)c3cc2C(C)C)cn2ncnc2c1C (single isomer, unassigned) [Example 275, 1-(4-(4,4-difluoropiperidin-1-yl)cyclohexyl)-5-(7,8-dimethyl-[1,2,4]triazolo[1,5-a]pyridin-6-yl)-6-isopropyl-1,3-dihydro-2H-benzo[d]imidazol-2-one] | 19900 | 0.81
Cc1c(-c2cc3[nH]c(=O)n(C4CCC(N5CCC(F)(F)CC5)CC4)c3cc2C(C)C)cn2ncnc2c1C (single isomer, unassigned) [Example 276, 1-(4-(4,4-difluoropiperidin-1-yl)cyclohexyl)-5-(7,8-dimethyl-[1,2,4]triazolo[1,5-a]pyridin-6-yl)-6-isopropyl-1,3-dihydro-2H-benzo[d]imidazol-2-one] | 15300 | 1.92
COC1CN(C2CCC(n3c(=O)[nH]c4cc(-c5cn6ncnc6c(C)c5C)c(C(C)C)cc43)CC2)C1 (single isomer, unassigned) [Example 277, 5-(7,8-dimethyl-[1,2,4]triazolo[1,5-a]pyridin-6-yl)-6-isopropyl-1-(4-(3-methoxyazetidin-1-yl)cyclohexyl)-1,3-dihydro-2H-benzo[d]imidazol-2-one] | 7380 | 0.74
COC1CN(C2CCC(n3c(=O)[nH]c4cc(-c5cn6ncnc6c(C)c5C)c(C(C)C)cc43)CC2)C1 (single isomer, unassigned) [Example 278, 5-(7,8-dimethyl-[1,2,4]triazolo[1,5-a]pyridin-6-yl)-6-isopropyl-1-(4-(3-methoxyazetidin-1-yl)cyclohexyl)-1,3-dihydro-2H-benzo[d]imidazol-2-one] | 15200 | 1.57
Cc1c(-c2cc3[nH]c(=O)n(C4CCC(N5CC6(COC6)C5)CC4)c3cc2C(C)C)cn2ncnc2c1C (single isomer, unassigned) [Example 281, 1-(4-(2-oxa-6-azaspiro[3.3]heptan-6-yl)cyclohexyl)-5-(7,8-dimethyl-[1,2,4]triazolo[1,5-a]pyridin-6-yl)-6-isopropyl-1,3-dihydro-2H-benzo[d]imidazol-2-one] | 13100 | 2.67
Cc1c(-c2cc3[nH]c(=O)n(C4CCC(N5CCC6(CC5)COC6)CC4)c3cc2C(C)C)cn2ncnc2c1C (single isomer, unassigned) [Example 282, 1-(4-(2-oxa-7-azaspiro[3.5]nonan-7-yl)cyclohexyl)-5-(7,8-dimethyl-[1,2,4]triazolo[1,5-a]pyridin-6-yl)-6-isopropyl-1,3-dihydro-2H-benzo[d]imidazol-2-one] | 14400 | 0.51
Cc1c(-c2cc3[nH]c(=O)n(C4CCC(N5CCC6(CC5)COC6)CC4)c3cc2C(C)C)cn2ncnc2c1C (single isomer, unassigned) [Example 283, 1-(4-(2-oxa-7-azaspiro[3.5]nonan-7-yl)cyclohexyl)-5-(7,8-dimethyl-[1,2,4]triazolo[1,5-a]pyridin-6-yl)-6-isopropyl-1,3-dihydro-2H-benzo[d]imidazol-2-one] | 5340 | 0.09
COc1cc(-c2cc3[nH]c(=O)n(C4CCC(N5CCC(S(C)(=O)=O)C5)CC4)c3cc2C(C)C)cn2ncnc12 (single isomer, unassigned) [Example 288, 6-isopropyl-5-(8-methoxy-[1,2,4]triazolo[1,5-a]pyridin-6-yl)-1-(4-(3-(methylsulfonyl)pyrrolidin-1-yl)cyclohexyl)-1,3-dihydro-2H-benzo[d]imidazol-2-one] | 47800 | 0.75
COc1cc(-c2cc3[nH]c(=O)n(C4CCC(N5CCC(S(C)(=O)=O)C5)CC4)c3cc2C(C)C)cn2ncnc12 (single isomer, unassigned) [Example 289, 6-isopropyl-5-(8-methoxy-[1,2,4]triazolo[1,5-a]pyridin-6-yl)-1-(4-(3-(methylsulfonyl)pyrrolidin-1-yl)cyclohexyl)-1,3-dihydro-2H-benzo[d]imidazol-2-one] | > 50000 | 4.44
COC[C@@H]1CCN(C2CCC(n3c(=O)[nH]c4cc(-c5cc(OC)c6ncnn6c5)c(C(C)C)cc43)CC2)C1 (single isomer, unassigned) [Example 290] | 7100 | 0.53
COC[C@@H]1CCN(C2CCC(n3c(=O)[nH]c4cc(-c5cc(OC)c6ncnn6c5)c(C(C)C)cc43)CC2)C1 (single isomer, unassigned) [Example 291] | 12300 | 1.86
COc1cc(-c2cc3[nH]c(=O)n(C4CCC(N5C[C@@H](F)[C@@H](F)C5)CC4)c3cc2C(C)C)cn2ncnc12 (single isomer, unassigned) [Example 292] | 28900 | 0.13
COc1cc(-c2cc3[nH]c(=O)n(C4CCC(N5C[C@@H](F)[C@@H](F)C5)CC4)c3cc2C(C)C)cn2ncnc12 (single isomer, unassigned) [Example 293] | 23400 | 7.74
COc1cc(-c2cc3[nH]c(=O)n(C4CCC(N5CCC(F)(F)C5)CC4)c3cc2C(C)C)cn2ncnc12 (single isomer, unassigned) [Example 294, 1-(4-(3,3-difluoropyrrolidin-1-yl)cyclohexyl)-6-isopropyl-5-(8-methoxy-[1,2,4]triazolo[1,5-a]pyridin-6-yl)-1,3-dihydro-2H-benzo[d]imidazol-2-one] | 35200 | 3.14
COc1cc(-c2cc3[nH]c(=O)n(C4CCC(N5CCC(F)(F)C5)CC4)c3cc2C(C)C)cn2ncnc12 (single isomer, unassigned) [Example 295, 1-(4-(3,3-difluoropyrrolidin-1-yl)cyclohexyl)-6-isopropyl-5-(8-methoxy-[1,2,4]triazolo[1,5-a]pyridin-6-yl)-1,3-dihydro-2H-benzo[d]imidazol-2-one] | 22200 | 7.9
COc1cc(-c2cc3[nH]c(=O)n(C4CCC(N5CC(F)(F)C5)CC4)c3cc2C(C)C)cn2ncnc12 (single isomer, unassigned) [Example 296] | > 50000 | 3.4
COc1cc(-c2cc3[nH]c(=O)n(C4CCC(N5CC(F)(F)C5)CC4)c3cc2C(C)C)cn2ncnc12 (single isomer, unassigned) [Example 297] | 16200 | 8.4
